{"source": "patent US20160039897A1", "about": "“COMPOUNDS AND METHODS FOR TREATING OBESITY AND CONTROLLING WEIGHT” (THE UNIVERSITY OF NORTH CAROLINA AT CHAPEL HILL, priority 2013, published 2016)", "key": {"[1]": {"tested_on": "IGFBP-2−/− mice", "test": "Body weight gain and food intake, 12 weeks of peptide treatment", "assay_type": "in vivo, mouse", "details": "pegylated peptide 50 μg IP 3 times/week; for body weight gain (in words): HBD peptides after 8 weeks vs control peptide, control peptide over 12 weeks vs wild type", "protocol": "Generation of the B6.129-Igfbp2^tmlJep, referred to as Igfbp2^−/− mice, has been described previously (DeMambro et al., 2008; Danno et al., 1992). The mice were backcrossed onto C57BL/6J background for at least 10 generations. Mating pairs were provided from Maine Medical Center Research Institute (Scarborough, Me.). Igfbp2^+/+ mice were C57BL/6J controls. All in vivo and ex vivo experimental studies were performed using male mice. The animal study protocol was reviewed and approved by the Institutional Animal Care and Use Committee of University of North Carolina at Chapel Hill. Mice were assigned to one of four treatment groups. 1) Peg HBD1 peptide: Igfbp2^−/− mice were administered 50 μg of the pegylated HBD1 peptide in 0.1 mL PBS (n=9); 2) Peg HBD2 peptide: Igfbp2^−/− mice were administered 50 μg of the pegylated HBD2 peptide in 0.1 mL PBS (n=10); 3) control peptide: Igfbp2^−/− mice were given 50 μg of the HBD1 control peptide in 0.1 mL PBS (n=18); 4) WT: Igfbp2^+/+ mice were given 0.1 mL of PBS (n=9). All injections were administered IP 3 times weekly from 10-22 weeks of age. All mice were provided with free access to 2018 Teklad global rodent diet (Harlan, Dublin, Va.), containing 18.6% protein, 6.2% fat and 3.5% crude fiber. Food consumption and the weights of the mice were determined weekly.\nTo investigate the effect of IGFBP-2 HBDs on weight gain and fat mass in vivo, the peptides containing HBD sequences were administered to IGFBP-2−/− mice. […] To extend the half life of the peptides and increase their resistance to proteolysis in vivo, all three peptides were pegylated. It has been shown that 50 μg of HBD1 peptide administered via intraperitoneal (IP) injection 5 times per week for 3 weeks was effective in promoting bone growth in IGFBP-2^−/− male mice (17). […] In the second phase the effects of the HBD2 and control peptides were determined. […] To exclude the possibility that differences in weight gain were caused by different food intake, food consumption was measured weekly.\nMice. […] Food consumption and the weights of the mice were determined weekly. […]"}, "[2]": {"tested_on": "IGFBP-2−/− mice", "test": "Body composition (fat and lean mass) by EchoMRI at weeks 0 and 12", "assay_type": "in vivo, mouse", "protocol": "Body fat and lean muscle mass was measured at weeks 0 and 12 of treatment by magnetic resonance imaging analysis (EchoMRI-100, Echo Medical Systems, Houston, Tex.), a technique that measures fat mass and lean mass in unanesthetized animals (Kelly S A, et. al., 2010). After completion of 12 weeks of treatment, the mice were sacrificed. Blood was collected by cardiac puncture and allowed to sit for 4 hours before centrifuging at 3500 rpm×15 min. The serum was aspirated and stored at −20° C. until analysis. Abdominal inguinal and visceral fat pads were carefully dissected from each animal according to defined anatomical landmarks. All subcutaneous fat between the lower part of the rib cage and the upper thigh was considered abdominal subcutaneous inguinal fat, whereas all fat found along the mesentery starting at the lesser curvature of the stomach and ending at the sigmoid colon was considered visceral fat. Fat depots were blotted dry prior to weighing. The right inguinal fat pad was dissected separately and the triglyceride content of this tissue was determined by a colorimetric analysis (Pointe Scientific, Canton, Mich.), as previously described (Dann H, Kimura S 1992). Serum adiponectin and leptin were measured by ELISA following manufacturer's instructions (Millipore, Billerica, Mass.).\nBody composition and serum adipokine measurement. Body fat and lean mass were measured at weeks 0 and 12 of treatment by magnetic resonance imaging analysis (EchoMRI-100, Echo Medical Systems, Houston, Tex.), using unanesthetized animals. After 12 weeks of treatment, the mice were sacrificed and blood was collected by cardiac puncture and centrifuged at 3500 rpm×15 min. The serum was stored at −20° C. Abdominal inguinal and visceral fat pads were dissected from each animal according to defined anatomical landmarks. Subcutaneous fat between the rib cage and the upper thigh was termed subcutaneous inguinal fat, whereas all fat from the lesser curvature of the stomach to the sigmoid colon was termed visceral fat. Fat depots were blotted dry prior to weighing. The right inguinal fat pad was dissected separately and the triglyceride content of this tissue was determined by a calorimetric analysis (Pointe Scientific, Canton, Mich. Serum adiponectin and leptin were measured by ELISA following manufacturer's instructions (Millipore, Billerica, Mass.)."}, "[3]": {"details": "weeks 0 to 12, pegylated peptide 50 μg IP 3 times/week"}, "[4]": {"details": "weeks 0 to 12, pegylated peptide 50 μg IP 3 times/week, mean±SE"}}, "data": [{"sequence": "KHGLYNLKQCKMSLNGQR [HBD2 peptide]", "values": [{"measurement": "body weight gain (in words)", "setting": "[1]", "result": "gained significantly less weight"}, {"measurement": "weight gain compared to mice that received HBD1 peptide", "setting": "[1]; after 10 weeks", "result": "significantly less"}, {"measurement": "reduction in body fat mass gain (fat as percentage of body weight) compared to control peptide", "setting": "[2]; 12 weeks, pegylated peptide 50 μg IP 3 times/week", "result": "48±9", "unit": "%"}, {"measurement": "lean mass change expressed as percentage of body weight (relative reduction)", "setting": "[2]; [3]", "result": "2.1±0.8", "unit": "%"}, {"measurement": "Fat mass increase", "setting": "[2]; [4]", "result": "0.58 ± 0.12", "unit": "g"}, {"measurement": "Lean mass increase", "setting": "[2]; [4]", "result": "3.10 ± 0.57", "unit": "g"}]}, {"sequence": "KHLSLEEPKKLRP [HBD1 peptide]", "values": [{"measurement": "body weight gain (in words)", "setting": "[1]", "result": "gained significantly less weight"}, {"measurement": "inhibition of fat mass acquisition", "setting": "[2]; 12 weeks", "result": 31, "unit": "%"}, {"measurement": "lean mass change expressed as percentage of body weight (relative reduction)", "setting": "[2]; [3]", "result": "4.1±1.1", "unit": "%"}]}]}
